Assay results: US20260199350A1, “FLAVONES, QUINOLINONES, QUINAZOLINONES, AND AURONES, AND USES IN CK2-MEDIATED DISEASES” (Salk Institute for Biological Studies, priority 2022, published 2026)
Where two headings read alike, the source gives them in different places.

Columns and labels:
[1] = target: T1, CK2A1 (Homo sapiens, UniProt P68400); test: Radiometric kinase assay (Eurofins), CK2A1; format: biochemical; details: read-out: CK2A1 RAD IC50
T1 construct: purchased Eurofins
Excerpt: FIGS. 4A-4F characterize flavones for in vitro and in-cell CK2 inhibition. […] Representative of two independent experiments. […] Nonlinear fit was used to calculate IC50. […] Nonlinear fit was used to calculate IC50. […] Nonlinear fit was used to calculate IC50. […] Normalized to DMSO, data are representative of three independent experiments.
(§1) • ^1Radiometric kinase assay from Eurofins. Performed in astrocytes with a Promega Lumit IL-6 kit.

[2] = target: T2, CK2A2 (Homo sapiens, UniProt P19784); test: Radiometric kinase assay (Eurofins), CK2A2; format: biochemical; details: read-out: CK2A2 RAD IC50
T2 construct: purchased Eurofins
T2 sequence (P19784 whole entry): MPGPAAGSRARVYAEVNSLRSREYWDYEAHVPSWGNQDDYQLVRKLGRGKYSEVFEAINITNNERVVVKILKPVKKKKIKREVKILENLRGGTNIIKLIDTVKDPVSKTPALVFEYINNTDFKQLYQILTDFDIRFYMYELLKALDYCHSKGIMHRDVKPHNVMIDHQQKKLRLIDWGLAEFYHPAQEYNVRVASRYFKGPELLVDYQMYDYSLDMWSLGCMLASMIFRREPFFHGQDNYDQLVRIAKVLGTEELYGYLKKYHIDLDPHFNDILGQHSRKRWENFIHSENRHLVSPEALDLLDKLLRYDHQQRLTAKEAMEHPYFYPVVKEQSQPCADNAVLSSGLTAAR
Excerpt: as §1

T1 sequence (P68400 whole entry): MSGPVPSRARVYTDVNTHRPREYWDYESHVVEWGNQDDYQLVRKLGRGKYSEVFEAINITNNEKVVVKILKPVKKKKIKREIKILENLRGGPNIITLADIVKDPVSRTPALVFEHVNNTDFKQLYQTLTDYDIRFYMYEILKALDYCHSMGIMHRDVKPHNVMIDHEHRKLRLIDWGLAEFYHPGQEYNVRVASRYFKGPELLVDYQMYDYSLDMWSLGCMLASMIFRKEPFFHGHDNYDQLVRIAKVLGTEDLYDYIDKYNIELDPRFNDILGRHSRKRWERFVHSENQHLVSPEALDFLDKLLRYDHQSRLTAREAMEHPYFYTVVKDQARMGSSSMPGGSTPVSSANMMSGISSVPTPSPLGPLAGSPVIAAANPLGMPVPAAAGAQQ

SMILES: O=c1[nH]c(-c2cc(Br)c(O)cn2)nc2c(Cl)cc(Cl)cc12 [Compound 1006A]
- IC50 ([1]; Table 9): 182 nM
- IC50 ([2]; Table 9): 85 nM

SMILES: COc1nc(-c2cc(=O)c3cc(Br)c(OC)c(Br)c3o2)ccc1O [Compound 1041A]
- IC50 ([1]; Table 5): 1890 nM
- IC50 ([2]; Table 5): 1740 nM

SMILES: O=c1cc(-c2cc(Br)c(O)cn2)[nH]c2c(Br)cc(Br)cc12 [Compound 1066A]
- IC50 ([1]; Table 7): 2700 nM
- IC50 ([2]; Table 7): 1290 nM

SMILES: COc1cc(/C=C2\Oc3c(ccc(OC)c3Br)C2=O)ncc1O [Compound 1189A]
- IC50 ([1]; Table 12): 117 nM
- IC50 ([2]; Table 12): 149 nM

SMILES: O=C1/C(=C/c2cc(Br)c(O)cn2)Oc2c(Br)cccc21 [Compound 1237A]
- IC50 ([1]; Table 12): 67 nM
- IC50 ([2]; Table 12): 57 nM

SMILES: O=c1[nH]c(-c2cc(Br)c(O)cn2)nc2c(Br)cc(Br)cc12 [JKT.932F]
- IC50 ([1]; Table 8, quinazolinones): 107 nM
- IC50 ([2]; Table 8, quinazolinones): 99 nM

SMILES: O=C1/C(=C/c2ccc(O)c(C3CC3)c2)Oc2c(Br)cc(Br)cc21 [Compound 1131A]
- IC50 ([1]; Table 12): > 5000 nM
- IC50 ([2]; Table 12): > 5000 nM

SMILES: COc1cc2oc(-c3ccc(O)c(OC)n3)cc(=O)c2cc1Br [Compound 1058A]
- IC50 ([1]; Table 5): 2730 nM
- IC50 ([2]; Table 5): 1180 nM

SMILES: COc1ccc2c(=O)cc(-c3ccc(O)c(OC)n3)oc2c1Br [Compound 1059A]
- IC50 ([1]; Table 5): 185 nM
- IC50 ([2]; Table 5): 251 nM

SMILES: COc1nc(-c2nc3c(Br)cc(Br)cc3c(=O)[nH]2)ccc1O [JKT.968C]
- IC50 ([1]; Table 8, quinazolinones): 27 nM
- IC50 ([2]; Table 8, quinazolinones): 33 nM

SMILES: COc1nc(/C=C2\Oc3c(Br)cc(Br)cc3C2=O)ccc1O [Compound 1150A]
- IC50 ([1]; Table 12): 178 nM
- IC50 ([2]; Table 12): 109 nM

SMILES: C#Cc1cc(/C=C2\Oc3c(Br)cc(Br)cc3C2=O)ccc1O [Compound 1224A]
- IC50 ([1]; Table 12): 177 nM
- IC50 ([2]; Table 12): 77 nM

SMILES: Cn1c(-c2ccc(O)c(C(F)(F)F)c2)nc2c(Br)cc(Br)cc2c1=O [JKT.874D]
- IC50 ([1]; Table 8, quinazolinones): > 5000 nM
- IC50 ([2]; Table 8, quinazolinones): > 5000 nM

SMILES: COc1cc(-c2nc3c(Br)cccc3c(=O)n2C)ccc1O [JKT.877A]
- IC50 ([1]; Table 8, quinazolinones): > 5000 nM
- IC50 ([2]; Table 8, quinazolinones): > 5000 nM

SMILES: C#Cc1cc(/C=C2\Oc3c(ccc(OC)c3Br)C2=O)ccc1O [Compound 1231A]
- IC50 ([1]; Table 12): 180 nM
- IC50 ([2]; Table 12): 206 nM

SMILES: Cn1c(-c2ccc(O)c(C(F)(F)F)c2)nc2c(Br)cccc2c1=O [JKT.875A]
- IC50 ([1]; Table 8, quinazolinones): > 5000 nM
- IC50 ([2]; Table 8, quinazolinones): > 5000 nM

SMILES: O=c1[nH]c(-c2ccc(O)c(Cl)n2)nc2c(Br)cccc12 [Compound 964A]
- IC50 ([1]; Table 9): 155 nM
- IC50 ([2]; Table 9): 137 nM

SMILES: COc1nc(-c2cc(=O)c3cc(Br)ccc3o2)ccc1O [Compound 1064A]
- IC50 ([1]; Table 5): 124 nM
- IC50 ([2]; Table 5): 167 nM

SMILES: O=c1[nH]c(-c2cc(Br)c(O)cn2)nc2c(Br)cc(Br)cc12 [Compound 1005A]
- IC50 ([1]; Table 9): 94 nM
- IC50 ([2]; Table 9): 53 nM

SMILES: O=c1cc(-c2cc(Br)c(O)cn2)oc2c(Br)cc(Br)cc12 [JKT.923A]
- IC50 ([1]; Table 4): 11 nM
- IC50 ([2]; Table 4): 8 nM

SMILES: COc1nc(-c2nc3c(Br)cccc3c(=O)[nH]2)ccc1O [JKT.975A]
- IC50 ([1]; Table 8, quinazolinones): 26 nM
- IC50 ([2]; Table 8, quinazolinones): 33 nM

SMILES: O=c1[nH]c(-c2ccc(O)c(Br)c2)nc2c(Br)nc(Br)cc12 [JKT.880B]
- IC50 ([1]; Table 8, quinazolinones): 95 nM
- IC50 ([2]; Table 8, quinazolinones): 242 nM

SMILES: COc1c(Br)cc2c(=O)cc(-c3ccc(O)c(C4CC4)c3)oc2c1Br [Compound 1140A]
- IC50 ([1]; Table 5): > 5000 nM
- IC50 ([2]; Table 5): > 5000 nM

SMILES: C#Cc1cc(/C=C2\Oc3c(cc(Br)c(OC)c3Br)C2=O)ccc1O [Compound 1229A]
- IC50 ([1]; Table 12): 151 nM
- IC50 ([2]; Table 12): 49 nM

SMILES: O=c1cc(-c2ccc(O)c(Cl)c2)[nH]c2c(Br)cc(Br)cc12 [Compound 1103A]
- IC50 ([1]; Table 7): 141 nM
- IC50 ([2]; Table 7): 71 nM

SMILES: COc1nc(-c2nc3c(Br)cc(Br)cc3c(=O)n2C)ccc1O [JKT.983A]
- IC50 ([1]; Table 8, quinazolinones): 677 nM
- IC50 ([2]; Table 8, quinazolinones): 900 nM

SMILES: COc1nc(/C=C2\Oc3c(Br)cccc3C2=O)ccc1O [Compound 1226A]
- IC50 ([1]; Table 12): 131 nM
- IC50 ([2]; Table 12): 91 nM

SMILES: O=c1cc(-c2ccc(O)c(C3CC3)c2)oc2c(Br)cccc12 [Compound 1141A]
- IC50 ([1]; Table 5): > 5000 nM
- IC50 ([2]; Table 5): 4250 nM

SMILES: O=c1cc(-c2ccc(O)c(O)c2)oc2c(Br)cc(Br)cc12 [Compound 1004A]
- IC50 ([1]; Table 5): 845 nM
- IC50 ([2]; Table 5): 803 nM

SMILES: COc1ccc2c(c1Br)O/C(=C\c1cc(Br)c(O)cn1)C2=O [Compound 1190B]
- IC50 ([1]; Table 12): 184 nM
- IC50 ([2]; Table 12): 46 nM

SMILES: O=c1cc(-c2ccc(O)c(Br)c2)[nH]c2c(Br)cc(Br)cc12 [JKT.944A]
- IC50 ([1]; Table 6, quinolinones): 128 nM
- IC50 ([2]; Table 6, quinolinones): 123 nM

SMILES: O=C1/C(=C/c2cc(Br)c(O)cn2)Oc2c(Br)cc(Br)cc21 [Compound 1173A]
- IC50 ([1]; Table 12): 60 nM
- IC50 ([2]; Table 12): 30 nM

SMILES: COc1nc(/C=C2\Oc3c(cc(Br)c(OC)c3Br)C2=O)ccc1O [Compound 1159A]
- IC50 ([1]; Table 12): 1020 nM
- IC50 ([2]; Table 12): 590 nM

SMILES: COc1cc(-c2cc(=O)c3cc(Br)ccc3o2)ncc1O [Compound 1065A]
- IC50 ([1]; Table 5): 401 nM
- IC50 ([2]; Table 5): 364 nM

SMILES: COc1c(Br)cc2c(c1Br)O/C(=C\c1cc(Br)c(O)cn1)C2=O [Compound 1174A]
- IC50 ([1]; Table 12): 86 nM
- IC50 ([2]; Table 12): 27 nM

SMILES: Cn1c(-c2cc(F)c(O)c(F)c2)nc2c(Br)cccc2c1=O [JKT.873A]
- IC50 ([1]; Table 8, quinazolinones): 566 nM
- IC50 ([2]; Table 8, quinazolinones): 649 nM

SMILES: O=C1/C(=C/c2ccc(O)cn2)Oc2c(Br)cc(Br)cc21 [Compound 1143A]
- IC50 ([1]; Table 12): > 5000 nM
- IC50 ([2]; Table 12): > 5000 nM

SMILES: Cn1c(-c2ccc(O)c(Cl)c2)nc2c(Br)cccc2c1=O [JKT.870A]
- IC50 ([1]; Table 8, quinazolinones): > 5000 nM
- IC50 ([2]; Table 8, quinazolinones): > 5000 nM

SMILES: O=C(O)c1ccc(/C=C2\Oc3c(Br)cccc3C2=O)cc1 [Compound 1210A]
- IC50 ([1]; Table 12): 703 nM
- IC50 ([2]; Table 12): 60 nM

SMILES: COc1cc(/C=C2\Oc3c(Br)cccc3C2=O)ncc1O [Compound 1236B]
- IC50 ([1]; Table 12): 172 nM
- IC50 ([2]; Table 12): 141 nM

SMILES: COc1ccc2c(=O)cc(-c3ccc(O)c(C4CC4)c3)oc2c1Br [Compound 1142A]
- IC50 ([1]; Table 5): 2790 nM
- IC50 ([2]; Table 5): 2230 nM

SMILES: O=c1[nH]c(-c2ccc(O)c(Cl)n2)nc2c(Cl)cc(Cl)cc12 [Compound 963A]
- IC50 ([1]; Table 9): 176 nM
- IC50 ([2]; Table 9): 62 nM

SMILES: O=c1cc(-c2cc(Br)c(O)cn2)oc2c(Br)cccc12 [JKT.980A]
- IC50 ([1]; Table 4): 53 nM
- IC50 ([2]; Table 4): 55 nM

SMILES: COc1ccc2c(c1Br)O/C(=C\c1ccc(O)c(OC)n1)C2=O [Compound 1188A]
- IC50 ([1]; Table 12): 465 nM
- IC50 ([2]; Table 12): 144 nM

SMILES: O=c1cc(-c2ccc(O)c(C3CC3)c2)oc2c(Br)cc(Br)cc12 [Compound 1132A]
- IC50 ([1]; Table 5): > 5000 nM
- IC50 ([2]; Table 5): > 5000 nM

SMILES: O=C1/C(=C/c2ccc(O)c(C3CC3)c2)Oc2c(Br)cccc21 [Compound 1220A]
- IC50 ([1]; Table 12): 4450 nM
- IC50 ([2]; Table 12): > 5000 nM

SMILES: O=c1[nH]c(-c2cc(Br)c(O)cn2)nc2c(Br)cccc12 [Compound 1007A]
- IC50 ([1]; Table 9): 380 nM
- IC50 ([2]; Table 9): 327 nM

SMILES: COc1cc(-c2cc(=O)c3cc(Br)cc(Br)c3[nH]2)ncc1O [Compound 1077A]
- IC50 ([1]; Table 7): > 5000 nM
- IC50 ([2]; Table 7): > 5000 nM

SMILES: COc1cc(-c2cc(=O)c3cc(Br)c(OC)cc3o2)ncc1O [Compound 1063B]
- IC50 ([1]; Table 5): 203 nM
- IC50 ([2]; Table 5): 445 nM

SMILES: COc1cc(/C=C2\Oc3c(Br)cc(Br)cc3C2=O)ncc1O [Compound 1163A]
- IC50 ([1]; Table 12): 45 nM
- IC50 ([2]; Table 12): 403 nM

SMILES: C#Cc1cc(-c2cc(=O)c3cc(Br)c(OC)c(Br)c3o2)ccc1O [Compound 1212A]
- IC50 ([1]; Table 12): > 5000 nM
- IC50 ([2]; Table 12): 1260 nM

SMILES: COc1cc(-c2nc3c(Br)cc(Br)cc3c(=O)n2C)ccc1O [JKT.876A]
- IC50 ([1]; Table 8, quinazolinones): > 5000 nM
- IC50 ([2]; Table 8, quinazolinones): > 5000 nM

SMILES: COc1cc(/C=C2\Oc3c(cc(Br)c(OC)c3Br)C2=O)ncc1O [Compound 1164A]
- IC50 ([1]; Table 12): 120 nM
- IC50 ([2]; Table 12): 331 nM

SMILES: COc1cc(-c2cc(=O)c3cc(Br)c(OC)c(Br)c3o2)ncc1O [Compound 1040A]
- IC50 ([1]; Table 5): 52 nM
- IC50 ([2]; Table 5): 29 nM

SMILES: O=c1cc(-c2ccc(O)c(C(F)(F)F)c2)[nH]c2c(Br)cc(Br)cc12 [Compound 1095B]
- IC50 ([1]; Table 7): 488 nM
- IC50 ([2]; Table 7): 699 nM

SMILES: Cn1c(-c2ccc(O)c(Br)c2)nc2c(Br)cccc2c1=O [JKT.866A]
- IC50 ([1]; Table 8, quinazolinones): 4590 nM
- IC50 ([2]; Table 8, quinazolinones): > 5000 nM

SMILES: COc1c(Br)cc2c(c1Br)O/C(=C\c1ccc(O)c(C3CC3)c1)C2=O [Compound 1134A]
- IC50 ([1]; Table 12): > 5000 nM
- IC50 ([2]; Table 12): > 5000 nM
